Laboratory results from patent US7018990B2, “Combination of a factor Xa inhibitor and clopidogrel” (Bristol-Myers Squibb Company, priority 2002, dated 2006).

Legend:
rabbits [1] = experiment: Electrically induced carotid artery thrombosis in anesthetized rabbits (clot inhibition, carotid blood flow); assay type: in vivo
Procedure: Rabbits were anesthetized with ketamine (50 mg/kg i.m.) and xylazine (10 mg/kg i.m.) and then surgically prepared with arterial and venous catheters. An electromagnetic flow probe was placed on a segment of an isolated carotid artery to monitor blood flow. Thrombus formation was induced by electrical stimulation of the carotid artery for 3 min at 4 mA using an external stainless-steel bipolar electrode. Carotid blood flow was measured continuously over a 45-min period to monitor thrombus occlusion. Compound A was infused intravenously whereas clopidogrel was infused into the portal vein. Both agents were infused 1 hour prior to the electrical stimulation of the carotid artery and continuously during the 45-min period.
(§1) The same experimental protocol as described in Example 1 was used in this study. Aspirin was infused intravenously whereas clopidogrel was infused into the portal vein. Both agents were infused 1 hour prior to the electrical stimulation of the carotid artery and the cuticle transection, and continuously to the end of the experiment.
The same experimental protocol as described in Example 1 was used in this study. Aspirin and Compound A were infused intravenously.

rabbits [2] = experiment: Cuticle bleeding time in anesthetized rabbits; settings: clopidogrel 1 mg/kg/hr infused into the portal vein, compared to the vehicle-group
Procedure: The bleeding time effects of Compound A, clopidogrel, and their combination were examined in anesthetized rabbits. Rabbits were anesthetized as described above and their hind paws were shaved. A standard cut was made at the apex of the cuticle with a razor blade. Blood was allowed to flow freely by keeping the bleeding site in contact with 37° C. warm lactated Ringer's solution. Bleeding time was defined as the time after transection when bleeding was ceased. It was measured by averaging the bleeding time of three nail cuticles in the control and treatment period. Percentage change in cuticle bleeding time is calculated by comparing the bleeding time taken in the treatment period to the control bleeding time. Compounds were infused as described above.
as §1

[3] = clopidogrel 1 mg/kg/hr infused into the portal vein
[4] = Compound A 0.1 mg/kg/hr infused intravenously
[5] = aspirin 0.3 mg/kg/hr infused intravenously

Which results are given for `COC(=O)[C@H](c1ccccc1Cl)N1CCc2sccc2C1` [clopidogrel, Clopidogrel]?
carotid blood flow (rabbits [1]; [3]): increase in carotid blood flow; inhibition of clot formation (rabbits [1]; [3]): moderate inhibition of clot formation; bleeding time (rabbits [2]): increased the bleeding time significantly

Which results are given for `CN(C)Cc1nccn1-c1ccc(NC(=O)c2cc(C(F)(F)F)nn2-c2ccc3onc(N)c3c2)c(F)c1.Cl` [Compound A, 1-(3′-aminobenzisoxazol-5′-yl)-3-trifluoromethyl-5-[[4-[(2′-dimethylaminomethyl)imidazol-1′-yl]-2fluorophenyl]aminocarbonyl]pyrazole-hydrochloric acid salt]?
carotid blood flow (rabbits [1]; [4]): increase in carotid blood flow; inhibition of clot formation (rabbits [1]; [4]): moderate inhibition of clot formation

What does the source list for `CC(=O)Oc1ccccc1C(=O)O` [aspirin, acetylsalicyclic acid]?
carotid blood flow (rabbits [1]; [5]): not effective; inhibition of clot formation (rabbits [1]; [5]): not effective in inhibiting the formation of clot
